Key:
[1] = set-up: method as in PMID 30845345; conditions: mice; oral and inhalation intake; within 30 min post administration; cited from earlier work
[2] = set-up: method as in PMID 9682146, PMID 9654110; conditions: after oral administration; cited from earlier work
[3] = Limonene exhalation kinetics in breath (Breath Biopsy, GC-MS) after ingestion of 100 mg limonene; conditions: for Cmax (ng) median [IQR]: 100 mg limonene oral, overnight fast
[4] = set-up: method as in PMID 20661827; conditions: cited from earlier work
[5] = Breath limonene by selected ion flow tube mass spectrometry (SIFT-MS), one 15 s exhalation; assay type: in vivo; conditions: unpublished data

## C=C(C)[C@H]1CC=C(C)CC1 [limonene]
[1]
  Organ distribution: majority of limonene found in the liver
[2]
  Distribution volume: greater than total body water
[3]; all subjects, 100 mg limonene
  Limonene spike in breath after administration compared to baseline: > 100 fold
[3]; breath, semi-logarithmic scale, control group
  Slope (rate of elimination): −0.027 [−0.031–−0.023]
[3]; breath, cirrhosis group
  AUC (0–90 min) median [IQR]: 121,437 [57,921–202,733] ng × min/400 mL
  Cmax (ng) median [IQR]: 2077 [1051–4260] ng
[3]; breath, control group
  AUC (0–90 min) median [IQR]: 27,107 [17,605–34,946] ng × min/400 mL
  Cmax (ng) median [IQR]: 595 [361–903] ng
[3]; case report subject DYL10297 (enrolled as control, suspected mild chronic liver disease), at 40 min
  Cmax: 2421 ng
[4]; after 4 weeks of continuous exposure
  Average increase in adipose tissue: 44 fold
[4]; after a single dose
  Accumulation in adipose tissue: no accumulation
[5]
  Breath levels of limonene before administration: a few
  Increase of breath limonene after administration vs before: > 1000 fold
[5]; up to
  Breath levels of limonene after administration: 5–10 PPM

Reference: publication PMC10669625 (Biomedicines, 2023)
